± gives the standard deviation of the averaged measurements.
Legend:
NILOTINIB = compound: Cc1cn(-c2cc(NC(=O)c3ccc(C)c(Nc4nccc(-c5cccnc5)n4)c3)cc(C(F)(F)F)c2)cn1 [NILOTINIB]; experiment: surviving fraction relative to DMSO-only wells; higher = less growth inhibition; details: exposure time: 5 days
Method in brief: (§1)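 Continuous five-day exposure to inhibitors at 0.5, 1, 5, 10, 50, 100, 500 and 1000 nM started 24 hours after log-phase tumour cell lines were seeded at 250–500 cells per well in 384-well plates. Luminescence was read after 10 minutes at room temperature. Viability is given as surviving fraction, meaning CellTiter-Glo luminescence normalised to the median of DMSO-only wells.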

[1] = compound: CCc1cc(Nc2nccc(-c3c(-c4ccc(OC)c(C(=O)Nc5c(F)cccc5F)c4)nc4ccccn34)n2)c(OC)cc1N1CCC(N2CCN(S(C)(=O)=O)CC2)CC1; experiment: as above; details: exposure time: 5 days
Method in brief: as §1

Row | Test System | surviving fraction (NILOTINIB; 0.5 nM) | surviving fraction (NILOTINIB; 1 nM) | surviving fraction (NILOTINIB; 5 nM) | surviving fraction (NILOTINIB; 10 nM) | surviving fraction (NILOTINIB; 50 nM) | surviving fraction (NILOTINIB; 100 nM) | surviving fraction (NILOTINIB; 500 nM) | surviving fraction (NILOTINIB; 1000 nM) | surviving fraction ([1]; 0.5 nM) | surviving fraction ([1]; 1 nM) | surviving fraction ([1]; 5 nM) | surviving fraction ([1]; 10 nM) | surviving fraction ([1]; 50 nM) | surviving fraction ([1]; 100 nM) | surviving fraction ([1]; 500 nM) | surviving fraction ([1]; 1000 nM)
1 | CCK81 LARGE INTESTINE | 0.78 ± 0.088 | 0.839 ± 0.07 | 0.759 ± 0.055 | 0.737 ± 0.11 | 0.931 ± 0.04 | 0.877 ± 0.046 | 0.702 ± 0.1 | 0.616 ± 0.023 | – | – | – | – | – | – | – | –
2 | G292 BONE | 1.04 ± 0.042 | 1 ± 0.044 | 1.08 ± 0.033 | 1.06 ± 0.048 | 1.08 ± 0.031 | 1.1 ± 0.023 | 1.02 ± 0.013 | 0.956 ± 0.023 | 1.03 ± 0.072 | 0.969 ± 0.032 | 1 ± 0.061 | 1 ± 0.023 | 1.03 ± 0.041 | 0.994 ± 0.013 | 1.018 ± 0.0097 | 0.975 ± 0.035
3 | HCC38 BREAST | 0.988 ± 0.28 | 0.786 ± 0.015 | 1.01 ± 0.16 | 0.818 ± 0.15 | 0.742 ± 0.2 | 0.758 ± 0.039 | 0.823 ± 0.24 | 0.824 ± 0.16 | 1.09 ± 0.18 | 1.19 ± 0.28 | 1.1 ± 0.23 | 1.02 ± 0.23 | 0.855 ± 0.2 | 1.07 ± 0.17 | 0.923 ± 0.12 | 0.881 ± 0.13
4 | HCC70 BREAST | 1.07 ± 0.049 | 1.13 ± 0.036 | 1.12 ± 0.02 | 1.09 ± 0.13 | 1.17 ± 0.052 | 1.33 ± 0.072 | 1.34 ± 0.079 | 1.31 ± 0.04 | 1.08 ± 0.059 | 0.975 ± 0.12 | 1.07 ± 0.039 | 1.09 ± 0.1 | 1.08 ± 0.051 | 1.12 ± 0.096 | 1.03 ± 0.13 | 0.994 ± 0.052
5 | HMLE3 BREAST | 1.11 ± 0.018 | 1.07 ± 0.11 | 1.19 ± 0.1 | 1.18 ± 0.15 | 1.25 ± 0.026 | 1.26 ± 0.068 | 1.27 ± 0.15 | 1.23 ± 0.18 | 0.947 ± 0.037 | 0.931 ± 0.073 | 1 ± 0.013 | 1.09 ± 0.038 | 0.967 ± 0.066 | 0.979 ± 0.081 | 0.908 ± 0.049 | 0.834 ± 0.062
6 | HMT3552 BREAST | 1.01 ± 0.031 | 0.968 ± 0.018 | 1.04 ± 0.021 | 1.02 ± 0.018 | 1.09 ± 0.11 | 1.07 ± 0.11 | 1.12 ± 0.12 | 1.1 ± 0.069 | 1.14 | 1.08 | 1.08 | 1.1 | 1.17 | 1.18 | 1.21 | 1.3
7 | HS578T BREAST | 0.935 ± 0.21 | 1.06 ± 0.049 | 0.932 ± 0.16 | 0.796 ± 0.052 | 0.766 ± 0.084 | 0.841 ± 0.1 | 0.848 ± 0.091 | 0.669 ± 0.058 | 0.891 ± 0.1 | 0.952 ± 0.025 | 0.965 ± 0.12 | 0.902 ± 0.042 | 0.803 ± 0.064 | 0.88 ± 0.14 | 0.931 ± 0.022 | 0.776 ± 0.078

Source: the supplement of paper PMC6045584
